Source: patent US12077503B2, “Substituted cyclic amides and their use as herbicides” (FMC CORPORATION, priority 2015, dated 2024)

How the values were obtained:
Assay type in all cases: in vivo
[1] = system: pigweed (Amaranthus retroflexus); test: Test A preemergence; details: Amaranthus retroflexus, pre-emergence, 240 h, 0 to 100 scale where 0 is no effect and 100 is complete control, read-out: Pigweed plant response rating
[2] = system: giant foxtail (Setaria faberii); test: Test A preemergence; details: Setaria faberi, pre-emergence, 240 h, 0 to 100 scale where 0 is no effect and 100 is complete control, read-out: Foxtail, Giant plant response rating
Summary of the method: (§1)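 Seeds sprayed preemergence with a directed soil spray, or plants at 2 to 10 cm height and one- to two-leaf stage sprayed postemergence, with test chemicals in a non-phytotoxic solvent mixture containing surfactant, in loam soil–sand blend. Injury rated visually against untreated controls after about 10 d in greenhouse, 0 (no effect) to 100 (complete control).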

[3] = system: ragweed (common ragweed, Ambrosia elatior); test: Test A preemergence; details: Ambrosia artemisiifolia, pre-emergence, 240 h, 0 to 100 scale where 0 is no effect and 100 is complete control, read-out: Ragweed plant response rating
Summary of the method: as §1

[4] = system: barnyardgrass (Echinochloa crus-galli); test: Test A preemergence; details: Echinochloa crus-galli, pre-emergence, 240 h, 0 to 100 scale where 0 is no effect and 100 is complete control, read-out: Barnyardgrass plant response rating
Summary of the method: as §1

Kochia (Kochia scoparia) [5] = test: Test A preemergence; details: Bassia scoparia, pre-emergence, 240 h, 0 to 100 scale where 0 is no effect and 100 is complete control, read-out: Kochia plant response rating
Summary of the method: as §1

[6] = system: ryegrass, Italian (Italian ryegrass, Lolium multiflorum); test: Test A preemergence; details: Lolium multiflorum, pre-emergence, 240 h, 0 to 100 scale where 0 is no effect and 100 is complete control, read-out: Ryegrass, Italian plant response rating
Summary of the method: as §1

[7] = system: barnyardgrass (Echinochloa crus-galli); test: Test B flooded paddy test; details: Echinochloa crus-galli, 250 g ai/ha, Flood; 0 to 100 scale where 0 is no effect and 100 is complete control; read-out: Barnyardgrass plant response rating
Summary of the method: (§2)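 Flooding to 3 cm over soil accompanied treatment, which consisted of adding compound to the standing water around 2-leaf plants; depth was then maintained. Visual assessment versus controls followed at 13 to 15 d (scale 0–100, 0 meaning no effect).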

[8] = system: ducksalad (Heteranthera limosa); test: Test B flooded paddy test; details: Heteranthera limosa, 250 g ai/ha, Flood; 0 to 100 scale where 0 is no effect and 100 is complete control; read-out: Ducksalad plant response rating
Summary of the method: as §2

rice (Oryra sativa) = test: Test B flooded paddy test; details: Oryza sativa, 250 g ai/ha, Flood; 0 to 100 scale where 0 is no effect and 100 is complete control; read-out: Rice plant response rating
Summary of the method: as §2

[9] = system: sedge, umbrella (small-flower umbrella sedge, Cyperus difformis); test: Test B flooded paddy test; details: Cyperus difformis, 250 g ai/ha, Flood; 0 to 100 scale where 0 is no effect and 100 is complete control; read-out: Sedge, Umbrella plant response rating
Summary of the method: as §2

[10] = system: pigweed (Amaranthus retroflexus); test: Test A postemergence; details: Amaranthus retroflexus, post-emergence, 240 h, Postemergence, read-out: Pigweed plant response rating (0 to 100 scale)
Summary of the method: as §1

[11] = system: giant foxtail (Setaria faberii); test: Test A postemergence; details: Setaria faberi, post-emergence, 240 h, Postemergence, read-out: Foxtail, Giant plant response rating (0 to 100 scale)
Summary of the method: as §1

[12] = system: ragweed (common ragweed, Ambrosia elatior); test: Test A postemergence; details: Ambrosia artemisiifolia, post-emergence, 240 h, Postemergence, read-out: Ragweed plant response rating (0 to 100 scale)
Summary of the method: as §1

[13] = system: barnyardgrass (Echinochloa crus-galli); test: Test A postemergence; details: Echinochloa crus-galli, post-emergence, 240 h, Postemergence
Summary of the method: as §1

[14] = system: Galium (catchweed bedstraw, Galium aparine); test: Test A postemergence; details: Galium, post-emergence, 240 h, Postemergence, read-out: Galium plant response rating (0 to 100 scale)
Summary of the method: as §1

[15] = system: blackgrass (Alopecurus myosuroides); test: Test A postemergence; details: Alopecurus myosuroides, post-emergence, 240 h, Postemergence, read-out: Blackgrass plant response rating (0 to 100 scale)
Summary of the method: as §1

Kochia (Kochia scoparia) [16] = test: Test A postemergence; details: Bassia scoparia, post-emergence, 240 h, Postemergence, read-out: Kochia plant response rating (0 to 100 scale)
Summary of the method: as §1

corn (Zea mays) = test: Test A postemergence; details: Zea mays, post-emergence, 240 h, Postemergence, read-out: Corn plant response rating (0 to 100 scale)
Summary of the method: as §1

[17] = system: wheat (Triticum aestivum); test: Test A postemergence; details: Triticum aestivum, post-emergence, 240 h, Postemergence, read-out: Wheat plant response rating (0 to 100 scale)
Summary of the method: as §1

[18] = system: ryegrass, Italian (Italian ryegrass, Lolium multiflorum); test: Test A postemergence; details: Lolium multiflorum, post-emergence, 240 h, Postemergence, read-out: Ryegrass, Italian plant response rating (0 to 100 scale)
Summary of the method: as §1

[19] = 125 g ai/ha, preemergence, visual injury rating, approximately 10 d
[20] = 125 g ai/ha, visual rating about 10 d after treatment
[21] = 31 g ai/ha, 0 is no effect, 100 is complete control

Q: With `CN1C[C@H](c2csc3c2CCOC3)[C@@H](C(=O)Nc2cccc(F)c2F)C1=O` [Compound 1268] as the molecule, how does the pest or weed control at 31 g/ha ([1]; 31 g ai/ha, Preemergence) read?
A: Its pest or weed control at 31 g/ha is 0%.

Q: What about the pest or weed control at 125 g/ha [1, 19] of the same molecule?
A: The pest or weed control at 125 g/ha was 0%.

Q: And the pest or weed control at 31 g/ha ([2]; 31 g ai/ha, Preemergence)?
A: Its pest or weed control at 31 g/ha is 70%.

Q: And the pest or weed control at 125 g/ha [2, 19]?
A: Its pest or weed control at 125 g/ha is 90%.

Q: What about the pest or weed control at 31 g/ha ([3]; 31 g ai/ha, Preemergence) of the same molecule?
A: Its pest or weed control at 31 g/ha is 0%.

Q: What about the pest or weed control at 125 g/ha [3, 19] of the same molecule?
A: The pest or weed control at 125 g/ha was 0%.

Q: And the pest or weed control at 31 g/ha ([4]; 31 g ai/ha, Preemergence)?
A: Its pest or weed control at 31 g/ha is 90%.

Q: And the pest or weed control at 125 g/ha [4, 19]?
A: The pest or weed control at 125 g/ha was 90%.

Q: And the pest or weed control at 31 g/ha (Kochia (Kochia scoparia) [5]; 31 g ai/ha, Preemergence)?
A: Its pest or weed control at 31 g/ha is 0%.

Q: And the pest or weed control at 125 g/ha (Kochia (Kochia scoparia) [5]; [19])?
A: The pest or weed control at 125 g/ha was 0%.

Q: What about the pest or weed control at 31 g/ha ([6]; 31 g ai/ha, Preemergence) of the same molecule?
A: Its pest or weed control at 31 g/ha is 0%.

Q: And the pest or weed control at 125 g/ha [6, 19]?
A: The pest or weed control at 125 g/ha was 20%.

Q: And the pest or weed control at 250 g/ha [7]?
A: The pest or weed control at 250 g/ha was 85%.

Q: What about the pest or weed control at 250 g/ha [8] of the same molecule?
A: Its pest or weed control at 250 g/ha is 95%.

Q: And the pest or weed control at 250 g/ha (rice (Oryra sativa))?
A: Its pest or weed control at 250 g/ha is 20%.

Q: What about the pest or weed control at 250 g/ha [9] of the same molecule?
A: The pest or weed control at 250 g/ha was 0%.

Q: And the pest or weed control at 125 g/ha [10, 20]?
A: The pest or weed control at 125 g/ha was 0%.

Q: What about the pest or weed control at 31 g/ha [10, 21] of the same molecule?
A: The pest or weed control at 31 g/ha was 0%.

Q: What about the pest or weed control at 125 g/ha [11, 20] of the same molecule?
A: The pest or weed control at 125 g/ha was 90%.

Q: What about the pest or weed control at 31 g/ha [11, 21] of the same molecule?
A: The pest or weed control at 31 g/ha was 50%.

Q: And the pest or weed control at 125 g/ha [12, 20]?
A: The pest or weed control at 125 g/ha was 0%.

Q: What about the pest or weed control at 31 g/ha [12, 21] of the same molecule?
A: The pest or weed control at 31 g/ha was 0%.

Q: What about the pest or weed control at 125 g/ha ([13]; 125 g ai/ha, visual rating about 10 d after treatment, read-out: Barnyardgrass plant response rating (0 to 100 scale, 0 no effect, 100 complete control)) of the same molecule?
A: The pest or weed control at 125 g/ha was 90%.

Q: What about the pest or weed control at 31 g/ha ([13]; 31 g ai/ha, 0 is no effect, 100 is complete control, read-out: Barnyardgrass plant response rating (0 to 100 scale)) of the same molecule?
A: The pest or weed control at 31 g/ha was 80%.

Q: What about the pest or weed control at 125 g/ha [14, 20] of the same molecule?
A: Its pest or weed control at 125 g/ha is 0%.

Q: And the pest or weed control at 31 g/ha [14, 21]?
A: The pest or weed control at 31 g/ha was 0%.

Q: What about the pest or weed control at 125 g/ha [15, 20] of the same molecule?
A: The pest or weed control at 125 g/ha was 0%.

Q: And the pest or weed control at 31 g/ha [15, 21]?
A: Its pest or weed control at 31 g/ha is 0%.

Q: What about the pest or weed control at 125 g/ha (Kochia (Kochia scoparia) [16]; [20]) of the same molecule?
A: The pest or weed control at 125 g/ha was 0%.

Q: What about the pest or weed control at 31 g/ha (Kochia (Kochia scoparia) [16]; [21]) of the same molecule?
A: Its pest or weed control at 31 g/ha is 0%.

Q: And the plant injury at 125 g/ha (corn (Zea mays); [20])?
A: The plant injury at 125 g/ha was 0%.

Q: And the plant injury at 31 g/ha (corn (Zea mays); [21])?
A: The plant injury at 31 g/ha was 0%.

Q: And the plant injury at 125 g/ha [17, 20]?
A: The plant injury at 125 g/ha was 0%.

Q: And the plant injury at 31 g/ha [17, 21]?
A: The plant injury at 31 g/ha was 0%.

Q: And the pest or weed control at 125 g/ha [18, 20]?
A: The pest or weed control at 125 g/ha was 20%.

Q: And the pest or weed control at 31 g/ha [18, 21]?
A: The pest or weed control at 31 g/ha was 0%.
